Experimental data: ChEMBL document CHEMBL6074684, “Structure-activity relationship study of novel evodiamine amino acid conjugates with potent anti-colorectal cancer efficacy” (Eur J Med Chem, 2025)
Converted amounts (≈) assume the structure as drawn. Values belong to the molecule of their own block, whether it stands above or below them. The source made the active and inactive calls. No cut-off for these calls is given here.

Columns and labels:
LoVo [1] = assay: Antitumor activity against human LoVo cells xenografted in male BALB/c nude mouse assessed as tumor growth inhibition at 0.5 mg/kg, ip administered once daily for 14 days; assay type: functional, organism-based; conditions: time 14.0 day
[2] = Toxicity in male BALB/c nude mouse xenografted with human HT-29 cells assessed as body weight loss at 0.5 mg/kg, ip administered once daily for 14 days; assay type: organism-based; conditions: in vivo, 336 h, time 14 day
[3] = Toxicity in male BALB/c nude mouse xenografted with human LoVo cells assessed as body weight loss at 0.5 mg/kg, ip administered once daily for 14 days; assay type: organism-based; conditions: in vivo, 336 h, time 14 day
[4] = Toxicity in male BALB/c nude mouse xenografted with human HT-29 cells assessed as animal death at 0.5 mg/kg, ip administered once daily for 14 days; assay type: organism-based; conditions: in vivo, 336 h, time 14 day
HT-29 [5] = assay: Antitumor activity against human HT-29 cells xenografted in male BALB/c nude mouse assessed as tumor growth inhibition at 0.5 mg/kg, ip administered once daily for 14 days relative to control; assay type: functional; conditions: HT-29, 336 h, time 14 day, read-out: TGI
[6] = Toxicity in male BALB/c nude mouse xenografted with human LoVo cells assessed as animal death at 0.5 mg/kg, ip administered once daily for 14 days; assay type: organism-based; conditions: in vivo, 336 h, time 14 day
HCT-116 = assay: Antiproliferative activity against human […] cells assessed as inhibition of cell growth incubated for 72 hrs by MTT assay; assay type: functional, cell-based; conditions: HCT-116, 72 h
RKO [7] = assay: Antiproliferative activity against human RKO cells assessed as inhibition of cell growth incubated for 72 hrs by MTT assay; assay type: functional, cell-based
[8] = target: T1, DNA topoisomerase 1 (Homo sapiens) (UniProt P11387); assay: Inhibition of topoisomerase 1 (unknown origin) mediated DNA relaxation at 100 uM preincubated for 20 mins followed by pBR322 plasmid DNA addition and measured after 15 mins by red nucleic acid gel staining based agarose gel electrophoresis; conditions: time 35.0 min
T1 sequence (whole entry): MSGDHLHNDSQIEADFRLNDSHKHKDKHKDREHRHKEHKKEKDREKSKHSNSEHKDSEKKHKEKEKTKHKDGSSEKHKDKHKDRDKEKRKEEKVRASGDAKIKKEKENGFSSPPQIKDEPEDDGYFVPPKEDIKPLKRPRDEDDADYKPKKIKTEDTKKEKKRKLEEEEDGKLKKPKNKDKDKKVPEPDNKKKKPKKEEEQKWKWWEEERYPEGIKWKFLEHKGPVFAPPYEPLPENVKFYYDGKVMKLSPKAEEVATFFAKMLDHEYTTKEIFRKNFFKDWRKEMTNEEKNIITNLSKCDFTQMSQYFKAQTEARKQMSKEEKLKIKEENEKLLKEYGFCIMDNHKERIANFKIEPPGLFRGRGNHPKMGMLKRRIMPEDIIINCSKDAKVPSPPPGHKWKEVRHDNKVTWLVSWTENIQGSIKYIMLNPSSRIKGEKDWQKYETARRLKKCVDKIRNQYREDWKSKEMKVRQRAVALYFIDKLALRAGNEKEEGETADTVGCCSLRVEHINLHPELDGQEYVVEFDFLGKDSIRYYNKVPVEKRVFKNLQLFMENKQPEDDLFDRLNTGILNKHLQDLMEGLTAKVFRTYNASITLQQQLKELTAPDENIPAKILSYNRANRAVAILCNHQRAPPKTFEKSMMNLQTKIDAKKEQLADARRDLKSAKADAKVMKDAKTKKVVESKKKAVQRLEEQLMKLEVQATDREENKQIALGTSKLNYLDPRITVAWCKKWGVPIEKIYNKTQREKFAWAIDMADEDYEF

LoVo [9] = assay: Antiproliferative activity against human LoVo cells assessed as inhibition of cell growth incubated for 72 hrs by MTT assay; assay type: functional, cell-based
[10] = Aqueous solubility of compound by HPLC analysis; assay type: physicochemical
HT-29 [11] = assay: Antiproliferative activity against human HT-29 cells assessed as inhibition of cell growth incubated for 72 hrs by MTT assay; assay type: functional, cell-based; conditions: HT-29, 72 h
LoVo [12] = assay: Cell cycle arrest in human LoVo cells assessed as accumulation of cells at G2 phase cells at 90 nM incubated for 24 hrs by […]PI staining based flow cytometric analysis (reference value: 14.84 %); assay type: functional
RKO [13] = assay: Induction of morphological changes in human RKO cells assessed as appearance of condensed morphology at 90 nM incubated for 24 hrs by Giemsa staining based microscopic analysis; assay type: functional, cell-based
LoVo [14] = assay: Induction of morphological changes in human LoVo cells assessed as appearance of condensed morphology at 90 nM incubated for 24 hrs by Giemsa staining based microscopic analysis; assay type: functional, cell-based
RKO [15] = assay: Induction of apoptosis in human RKO cells assessed as apoptosis rate at 90 nM incubated for 24 hrs by Annexin V/PI staining based flow cytometric analysis (reference value: 4.87 %); assay type: functional
LoVo [16] = assay: Induction of morphological changes in human LoVo cells assessed as appearance of contracted nucleus at 90 nM incubated for 24 hrs by Giemsa staining based microscopic analysis; assay type: functional, cell-based
RKO [17] = assay: Cell cycle arrest in human RKO cells assessed as accumulation of cells at G1 phase at 90 nM incubated for 24 hrs by […]PI staining based flow cytometric analysis (reference value: 35.29 %); assay type: functional
[18] = Cmax in male Sprague-Dawley rat at 50 mg/kg, ip measured after 24 hrs by LC-MS/MS analysis; assay type: ADME, organism-based; conditions: in vivo
[19] = AUC (0 to t) in male Sprague-Dawley rat at 50 mg/kg, ip measured after 24 hrs by LC-MS/MS analysis; assay type: ADME, organism-based; conditions: in vivo
LoVo [20] = assay: Antiproliferative activity against human LoVo cells assessed as reduction in cell viability measured after 24 hrs; assay type: functional, cell-based; conditions: dose 40-200 nmol/L
RKO [21] = assay: Cell cycle arrest in human RKO cells assessed as accumulation of cells at S phase at 90 nM incubated for 24 hrs by […]PI staining based flow cytometric analysis (reference value: 43.36 %); assay type: functional
LoVo [22] = assay: Antitumor activity against human LoVo cells xenografted in male BALB/c nude mouse assessed as tumor growth inhibition at 40 mg/kg, ip administered once daily for 14 days relative to control; assay type: functional; conditions: 336 h, time 14 day, read-out: TGI
LoVo [23] = assay: Cell cycle arrest in human LoVo cells assessed as accumulation of cells at S phase cells at 90 nM incubated for 24 hrs by […]PI staining based flow cytometric analysis (reference value: 54.99 %); assay type: functional
[24] = Half-life in male Sprague-Dawley rat at 50 mg/kg, ip measured after 24 hrs by LC-MS/MS analysis; assay type: ADME, organism-based; conditions: in vivo
RKO [25] = assay: Induction of morphological changes in human RKO cells assessed as appearance of contracted nucleus at 90 nM incubated for 24 hrs by Giemsa staining based microscopic analysis; assay type: functional, cell-based
[26] = Tmax in male Sprague-Dawley rat at 50 mg/kg, ip measured after 24 hrs by LC-MS/MS analysis; assay type: ADME, organism-based; conditions: in vivo
[27] = Apparent clearance during terminal phase in male Sprague-Dawley rat at 50 mg/kg, ip measured after 24 hrs by LC-MS/MS analysis; assay type: ADME, organism-based; conditions: in vivo, read-out: CLz/F (converted)
LoVo [28] = assay: Induction of apoptosis in human LoVo cells assessed as apoptosis rate at 90 nM incubated for 24 hrs by Annexin V/PI staining based flow cytometric analysis (reference value: 4.71 %); assay type: functional
RKO [29] = assay: Cell cycle arrest in human RKO cells assessed as accumulation of cells at G2 phase at 90 nM incubated for 24 hrs by […]PI staining based flow cytometric analysis (reference value: 20.07 %); assay type: functional
LoVo [30] = assay: Cell cycle arrest in human LoVo cells assessed as accumulation of cells at G1 phase cells at 90 nM incubated for 24 hrs by […]PI staining based flow cytometric analysis (reference value: 29.69 %); assay type: functional
Mitochondrial membrane [31] = assay: Induction of mitochondrial membrane potential loss in human RKO cells assessed as decrease in TMRE positive cells at 90 nM incubated for 24 hrs by TMRE staining based flow cytometric analysis; assay type: cell membranes
Mitochondrial membrane [32] = assay: Induction of mitochondrial membrane potential loss in human LoVo cells assessed as decrease in TMRE positive cells at 90 nM incubated for 24 hrs by TMRE staining based flow cytometric analysis; assay type: cell membranes
RKO [33] = assay: Antiproliferative activity against human RKO cells assessed as reduction in cell viability measured after 24 hrs; assay type: functional, cell-based; conditions: dose 40-200 nmol/L
[34] = Toxicity in male BALB/c nude mouse xenografted with human LoVo cells assessed as body weight loss at 40 mg/kg, ip administered once daily for 14 days; assay type: organism-based; conditions: in vivo, 336 h, time 14 day
HGC-27 = assay: Antiproliferative activity against human HGC-27 cells assessed as inhibition of cell growth incubated for 72 hrs by MTT assay; assay type: functional, cell-based; conditions: HGC-27, 72 h
SK-HEP1 = assay: Antiproliferative activity against human SK-HEP1 cells assessed as inhibition of cell growth incubated for 72 hrs by MTT assay; assay type: functional, cell-based; conditions: SK-HEP1, 72 h
Huh-7 = assay: Antiproliferative activity against human Huh-7 cells assessed as inhibition of cell growth incubated for 72 hrs by MTT assay; assay type: functional, cell-based; conditions: Huh-7, 72 h
SGC-7901 = assay: Antiproliferative activity against human SGC-7901 cells assessed as inhibition of cell growth incubated for 72 hrs by MTT assay; assay type: functional, cell-based; conditions: SGC-7901, 72 h
MCF7 = assay: Antiproliferative activity against human MCF7 cells assessed as inhibition of cell growth incubated for 72 hrs by MTT assay; assay type: functional, cell-based; conditions: MCF7, 72 h
MGC-803 = assay: Antiproliferative activity against human MGC-803 cells assessed as inhibition of cell growth incubated for 72 hrs by MTT assay; assay type: functional, cell-based; conditions: MGC-803, 72 h

Compound: CC[C@@]1(O)C(=O)OCc2c1cc1n(c2=O)Cc2cc3c(CN(C)C)c(O)ccc3nc2-1 [TOPOTECAN]
- Activity (LoVo [1]): Active
- Activity [2]: Toxic
- Activity [3]: Toxic
- Activity [4]: Toxic
- inhibition in vivo at 0.5 mg/kg (HT-29 [5]): 70.7%
- Activity [6]: Toxic

Compound: O=C1c2cc(F)ccc2N(c2cccc(F)c2)[C@@H]2c3[nH]c4ccc(O)cc4c3CCN12
- Activity (LoVo [12]): 31.88%
- Activity (RKO [13]): Active
- IC50 (HCT-116): 270 nM
- IC50 (RKO [7]): 130 nM
- Activity (LoVo [14]): Active
- Activity (RKO [15]): 13.9%
- Activity (LoVo [16]): Active
- Activity (RKO [17]): 35.52%
- Cmax [18]: 2190 ng/mL
- AUC(0-t) at 24 h [19]: 4350 ng·h/mL
- IC50 (LoVo [9]): 170 nM
- Activity (LoVo [20]): Dose-dependent-effect
- Activity (RKO [21]): 21.88%
- inhibition in vivo at 40 mg/kg (LoVo [22]): 51.2%
- Activity (LoVo [23]): 48.04%
- half-life [24]: 4.18 h
- Activity (RKO [25]): Active
- solubility [10]: 3.24 µg/mL (≈ 7.76 µM)
- Tmax [26]: 0.5 h
- CL/F [27]: 77.8 mL/min/kg
- Activity (LoVo [28]): 25.44%
- Activity (RKO [29]): 42.34%
- Activity (LoVo [30]): 18.84%
- Activity (Mitochondrial membrane [31]): Active
- Activity (Mitochondrial membrane [32]): Active
- Activity (RKO [33]): Dose-dependent-effect
- Activity [34]: Toxic
- IC50 (HT-29 [11]): 210 nM

Compound: CC(C)(C)OC(=O)N[C@@H](Cc1c[nH]c2ccccc12)C(=O)Oc1ccc2[nH]c3c(c2c1)CCN1C(=O)c2cc(F)ccc2N(c2cccc(F)c2)[C@H]31
- IC50 (HCT-116): 280 nM
- IC50 (RKO [7]): 80 nM
- IC50 (HGC-27): 330 nM
- IC50 (LoVo [9]): 250 nM
- IC50 (SK-HEP1): 900 nM
- IC50 (Huh-7): 400 nM
- IC50 (SGC-7901): 1480 nM
- IC50 (MCF7): 1280 nM
- IC50 (MGC-803): 690 nM
- IC50 (HT-29 [11]): 540 nM

Continued, in another order:

- IC50 (HCT-116): 200 nM
- inhibition [8]: Active; Little Effect Observed
- IC50 (LoVo [9]): 350 nM
- solubility [10]: 7.58 µg/mL (≈ 18.2 µM)
- IC50 (HT-29 [11]): 160 nM
Compound: O=C1c2cc(F)ccc2N(c2cccc(F)c2)C2c3[nH]c4ccc(O)cc4c3CCN12 (racemic)
- IC50 (RKO [7]): 170 nM

- IC50 (HCT-116): 19200 nM
- inhibition [8]: Active; Better Activity Than Evodiamine
- IC50 (LoVo [9]): 12700 nM
- IC50 (SK-HEP1): 37000 nM
- IC50 (Huh-7): 11500 nM
- IC50 (SGC-7901): 59600 nM
- IC50 (MCF7): 24600 nM
- IC50 (MGC-803): 15100 nM
- IC50 (HT-29 [11]): 26800 nM
Compound: CC(C)(C)OC(=O)N[C@@H](CCC(N)=O)C(=O)Oc1ccc2[nH]c3c(c2c1)CCN1C(=O)c2cc(F)ccc2N(c2cccc(F)c2)[C@@H]31
- IC50 (RKO [7]): 9300 nM
- IC50 (HGC-27): 18800 nM

- IC50 (HCT-116): 370 nM
- IC50 (LoVo [9]): 230 nM
- IC50 (SK-HEP1): 2650 nM
- IC50 (Huh-7): 160 nM
- IC50 (SGC-7901): 630 nM
- IC50 (MCF7): 1980 nM
- IC50 (MGC-803): 310 nM
- IC50 (HT-29 [11]): 280 nM
Compound: C[C@H](NC(=O)OC(C)(C)C)C(=O)Oc1ccc2[nH]c3c(c2c1)CCN1C(=O)c2cc(F)ccc2N(c2cccc(F)c2)[C@H]31
- IC50 (RKO [7]): 120 nM
- IC50 (HGC-27): 270 nM
